Data reported in ChEMBL document CHEMBL6127050, “Simultaneous inhibition of FLT3 and HDAC by novel 6-ethylpyrazine-2-Carboxamide derivatives provides therapeutic advantages in acute myelocytic leukemia” (Eur J Med Chem, 2024).
Activity calls are given as the source filed them. No cut-off for these calls is given here.

How the values were obtained:
[1] = biological target: T1, Histone deacetylase (Homo sapiens) (UniProt Q13547+O15379+Q9UBN7+Q92769+Q9UQL6+Q8WUI4+Q9BY41+Q96DB2+P56524+Q9UKV0+Q969S8); experiment: Inhibition of HDAC in human HeLa nuclear extract using Boc-Lys(Ac)-AMC as substrate at 200 nM incubated for 0.5 hrs by microplate reader analysis relative to control; type: cell-free
[2] = biological target: Histone deacetylase; experiment: Inhibition of HDAC in human HeLa nuclear extract using Boc-Lys(Ac)-AMC as substrate incubated for 0.5 hrs by microplate reader analysis; type: cell-based
[3] = biological target: T1, Histone deacetylase (Homo sapiens); experiment: Inhibition of HDAC in human HeLa nuclear extract using Boc-Lys(Ac)-AMC as substrate at 10000 nM incubated for 0.5 hrs by microplate reader analysis relative to control; type: cell-free
[4] = test system: KG-1; experiment: Antiproliferative activity against human KG-1 cells incubated for 48 hrs; details: KG-1, 48 h
[5] = test system: K562; experiment: Antiproliferative activity against human K562 cells incubated for 48 hrs; details: K562, 48 h
[6] = test system: THP-1; experiment: Antiproliferative activity against human THP-1 cells incubated for 48 hrs; details: THP-1, 48 h
[7] = biological target: T2, Receptor-type tyrosine-protein kinase FLT3 (Homo sapiens, UniProt P36888); experiment: Inhibition of FLT3 (unknown origin) incubated for 40 mins in presence of ATP by kinase-glo plus luminescence assay
T2 sequence (P36888 whole entry): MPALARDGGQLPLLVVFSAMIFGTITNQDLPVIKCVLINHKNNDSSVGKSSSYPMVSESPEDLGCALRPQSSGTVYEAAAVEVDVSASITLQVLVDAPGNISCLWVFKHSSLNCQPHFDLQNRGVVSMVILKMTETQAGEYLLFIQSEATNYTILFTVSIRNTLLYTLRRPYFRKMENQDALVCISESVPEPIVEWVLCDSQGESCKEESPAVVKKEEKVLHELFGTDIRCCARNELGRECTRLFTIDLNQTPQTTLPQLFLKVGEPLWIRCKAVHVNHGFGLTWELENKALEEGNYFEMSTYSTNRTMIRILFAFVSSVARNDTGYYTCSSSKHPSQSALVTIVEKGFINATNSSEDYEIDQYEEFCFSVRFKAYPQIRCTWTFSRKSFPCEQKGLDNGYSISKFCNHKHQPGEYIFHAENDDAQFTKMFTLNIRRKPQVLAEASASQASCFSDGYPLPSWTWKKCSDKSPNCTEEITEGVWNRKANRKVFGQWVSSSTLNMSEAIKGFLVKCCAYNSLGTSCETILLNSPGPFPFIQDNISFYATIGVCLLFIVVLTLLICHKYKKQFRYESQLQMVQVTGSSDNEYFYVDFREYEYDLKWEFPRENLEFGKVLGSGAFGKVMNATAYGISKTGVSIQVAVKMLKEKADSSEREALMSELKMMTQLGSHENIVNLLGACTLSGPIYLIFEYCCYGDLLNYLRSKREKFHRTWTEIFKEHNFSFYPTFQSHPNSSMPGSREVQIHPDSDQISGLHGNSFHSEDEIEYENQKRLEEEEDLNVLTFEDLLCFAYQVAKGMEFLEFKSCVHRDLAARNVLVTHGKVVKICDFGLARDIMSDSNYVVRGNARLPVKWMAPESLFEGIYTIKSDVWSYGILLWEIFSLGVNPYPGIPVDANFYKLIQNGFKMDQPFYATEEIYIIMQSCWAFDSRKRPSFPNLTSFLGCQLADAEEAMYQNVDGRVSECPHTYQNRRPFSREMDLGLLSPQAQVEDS

[8] = test system: MOLM-13; experiment: Antiproliferative activity against human MOLM-13 cells incubated for 48 hrs; details: MOLM-13, 48 h
[9] = test system: MOLM-13; experiment: Induction of cell cycle arrest in human MOLM-13 cells assessed as accumulation of cells at G0/G1 phase at 0.05 uM measured for 48 hrs by PI/RNase staining based flow cytometric analysis (reference value: 46.24 %); type: functional
[10] = Cytotoxicity against HEK293T cells incubated for 48 hrs; type: toxicity, cell-based, HEK-293T; details: human
[11] = test system: MOLM-13; experiment: Induction of apoptosis in human MOLM-13 cells assessed as necrotic cells at 0.1 uM incubated for 48 hrs in presence of vorinostat by Annexin V-FITC staining based flow cytometry analysis (reference value: 0.013 %); type: functional
[12] = test system: MOLM-13; experiment: Induction of cell cycle arrest in human MOLM-13 cells assessed as accumulation of cells at G2M phase at 0.05 uM measured for 48 hrs in presence of vorinostat by PI/RNase staining based flow cytometric analysis (reference value: 10.81%); type: functional
[13] = test system: MOLM-13; experiment: Induction of apoptosis in human MOLM-13 cells assessed as early apoptotic cells at 0.1 uM incubated for 48 hrs in presence of vorinostat by Annexin V-FITC staining based flow cytometry analysis (reference value: 4.07 %); type: functional
[14] = test system: MOLM-13; experiment: Antitumor activity against human MOLM-13 cells xenografted BALB/c mouse assessed as reduction in tumor volume at 10 mg/kg, IG qd administered 5 days a week and measured on day 9 in presence of vorinostat; type: functional, organism-based; details: time 9.0 day
[15] = test system: MOLM-13; experiment: Induction of apoptosis in human MOLM-13 cells assessed as late apoptotic cells at 0.1 uM incubated for 48 hrs by Annexin V-FITC staining based flow cytometry analysis (reference value: 1.40 %); type: functional
[16] = Toxicity in BALB/c mouse xenografted with human MOLM-13 cells assessed as lung damage at 10 mg/kg, IG qd administered 5 days a week and measured on day 9 in presence of vorinostat by H and E staining based analysis; type: organism-based; details: in vivo, po, 216 h, time 9 day
[17] = test system: MOLM-13; experiment: Induction of cell cycle arrest in human MOLM-13 cells assessed as accumulation of cells at S-phase at 0.05 uM measured for 48 hrs by PI/RNase staining based flow cytometric analysis (reference value: 42.95%); type: functional
[18] = test system: MOLM-13; experiment: Induction of cell cycle arrest in human MOLM-13 cells assessed as accumulation of cells at G2M phase at 0.05 uM measured for 48 hrs by PI/RNase staining based flow cytometric analysis (reference value: 10.81%); type: functional
[19] = test system: MOLM-13; experiment: Induction of apoptosis in human MOLM-13 cells assessed as early apoptotic cells at 0.1 uM incubated for 48 hrs by Annexin V-FITC staining based flow cytometry analysis (reference value: 4.07 %); type: functional
[20] = test system: MOLM-13; experiment: Induction of cell cycle arrest in human MOLM-13 cells assessed as accumulation of cells at G0/G1 phase at 0.05 uM measured for 48 hrs in presence of vorinostat by PI/RNase staining based flow cytometric analysis (reference value: 46.24 %); type: functional
[21] = test system: MOLM-13; experiment: Induction of apoptosis in human MOLM-13 cells assessed as viable cells at 0.1 uM incubated for 48 hrs by Annexin V-FITC staining based flow cytometry analysis (reference value: 94.5 %); type: functional; details: Homo sapiens, MOLM-13, read-out: Activity
[22] = test system: MOLM-13; experiment: Induction of apoptosis in human MOLM-13 cells assessed as late apoptotic cells at 0.1 uM incubated for 48 hrs in presence of vorinostat by Annexin V-FITC staining based flow cytometry analysis (reference value: 1.40 %); type: functional
[23] = test system: MOLM-13; experiment: Antitumor activity against human MOLM-13 cells xenografted BALB/c mouse assessed as tumor growth inhibition at 10 mg/kg, IG qd administered 5 days a week and measured on day 9 in presence of vorinostat; type: functional; details: MOLM-13, po, 216 h, time 9 day, read-out: TGI
[24] = Toxicity in BALB/c mouse xenografted with human MOLM-13 cells assessed as body weight loss at 10 mg/kg, IG qd administered 5 days a week and measured on day 9 in presence of vorinostat; type: organism-based; details: in vivo, po, 216 h, time 9 day
[25] = test system: MOLM-13; experiment: Induction of apoptosis in human MOLM-13 cells assessed as viable cells at 0.1 uM incubated for 48 hrs in presence of vorinostat by Annexin V-FITC staining based flow cytometry analysis (reference value: 94.5 %); type: functional; details: read-out: Activity
[26] = test system: MOLM-13; experiment: Induction of cell cycle arrest in human MOLM-13 cells assessed as accumulation of cells at S-phase at 0.05 uM measured for 48 hrs in presence of vorinostat by PI/RNase staining based flow cytometric analysis (reference value: 42.95%); type: functional
[27] = Toxicity in NOD/SCID mouse xenografted with human MOLM-13 cells assessed as increase in survival rate at 15 mg/kg, IG administered 5 days per week in presence of vorinostat by Kaplan Mayer survival analysis; type: organism-based; details: in vivo, po, 120 h, time 5 day
[28] = test system: MOLM-13; experiment: Induction of apoptosis in human MOLM-13 cells assessed as necrotic at 0.1 uM incubated for 48 hrs by Annexin V-FITC staining based flow cytometry analysis (reference value: 0.013 %); type: functional

SMILES: CCc1nc(C(N)=O)c(Nc2ccc(N3CCC(N4CCN(Cc5ccc(/C=C/C(=O)NO)cc5)CC4)CC3)c(OC)c2)nc1NC1CCOCC1
- inhibition [1]: 28%

SMILES: CCc1nc(C(N)=O)c(Nc2ccc(N3CCC(N4CCN(C(=O)CCCCCC(=O)NO)CC4)CC3)c(OC)c2)nc1NC1CCOCC1
- inhibition [1]: 14%

SMILES: CCc1nc(C(N)=O)c(Nc2ccc(N3CCC(N4CCN(CCCCCCCC(=O)NO)CC4)CC3)c(OC)c2)nc1NC1CCOCC1
- inhibition [1]: 28%

SMILES: CCc1nc(C(N)=O)c(Nc2ccc(N3CCN(CCC(=O)NO)CC3)c(OC)c2)nc1NC1CCOCC1
- inhibition [1]: 10%

SMILES: CCc1nc(C(N)=O)c(Nc2ccc(N3CCN(C(=O)CCCCCCC(=O)NO)CC3)c(OC)c2)nc1NC1CCOCC1
- IC50 [2]: 147.3 nM

SMILES: CCc1nc(C(N)=O)c(Nc2ccc(N3CCN(C(=O)CCCCCC(=O)NO)CC3)c(OC)c2)nc1NC1CCOCC1
- IC50 [2]: 204.3 nM

SMILES: CCc1nc(C(N)=O)c(Nc2ccc(N3CCC(N4CCN(Cc5ccc(C(=O)Nc6ccccc6N)cc5)CC4)CC3)c(OC)c2)nc1NC1CCOCC1
- inhibition [3]: 27.5%

SMILES: CCc1nc(C(N)=O)c(Nc2ccc(N3CCC(N4CCN(C(=O)CCCCC(=O)NO)CC4)CC3)c(OC)c2)nc1NC1CCOCC1
- inhibition [1]: 10%

SMILES: CCc1nc(C(N)=O)c(Nc2ccc(N3CCC(N4CCN(C(=O)CCCC(=O)NO)CC4)CC3)c(OC)c2)nc1NC1CCOCC1
- inhibition [1]: 27%

SMILES: CCc1nc(C(N)=O)c(Nc2ccc(N3CCC(N4CCN(CCCCCC(=O)NO)CC4)CC3)c(OC)c2)nc1NC1CCOCC1
- inhibition [1]: 36%

SMILES: CCc1nc(C(N)=O)c(Nc2ccc(N3CCN(CCCC(=O)NO)CC3)c(OC)c2)nc1NC1CCOCC1
- inhibition [1]: 3%

SMILES: CCc1nc(C(N)=O)c(Nc2ccc(N3CCN(CCCCCCC(=O)NO)CC3)c(OC)c2)nc1NC1CCOCC1
- IC50 [4]: 1440 nM
- IC50 [5]: 1060 nM
- IC50 [6]: 1550 nM
- IC50 [2]: 330 nM
- IC50 [7]: 0.6 nM
- IC50 [8]: 10 nM

SMILES: CCc1nc(C(N)=O)c(Nc2ccc(N3CCN(Cc4ccc(/C=C/C(=O)NO)cc4)CC3)c(OC)c2)nc1NC1CCOCC1
- IC50 [2]: 93.7 nM

SMILES: CCc1nc(C(N)=O)c(Nc2ccc(N3CCC(N4CCN(C)CC4)CC3)c(OC)c2)nc1NC1CCOCC1 [GILTERITINIB]
- IC50 [4]: 620 nM
- Activity [9]: 50%
- IC50 [5]: 990 nM
- IC50 at 48 h [10]: 970 nM
- Activity [11]: 0.88%
- Activity [12]: 7.24%
- Activity [13]: 35%
- Activity [14]: Active
- IC50 [6]: 850 nM
- Activity [15]: 12.7%
- Activity [16]: Non-Toxic
- Activity [17]: 44.47%
- Activity [18]: 5.53%
- Activity [19]: 33.5%
- Activity [20]: 64.51%
- viability at 0.1 µM [21]: 53.5%
- Activity [22]: 17.4%
- inhibition in vivo at 10 mg/kg [23]: 55.3%
- Activity [24]: Non-Toxic
- viability at 0.1 µM [25]: 46.8%
- Activity [26]: 28.26%
- Activity [27]: Non-Toxic
- Activity [28]: 0.36%
- IC50 [8]: 12 nM

SMILES: CCc1nc(C(N)=O)c(Nc2ccc(N3CCC(N4CCN(Cc5ccc(C(=O)NO)cc5)CC4)CC3)c(OC)c2)nc1NC1CCOCC1
- inhibition [1]: 18%

SMILES: CCc1nc(C(N)=O)c(Nc2ccc(N3CCN(CCCCC(=O)NO)CC3)c(OC)c2)nc1NC1CCOCC1
- inhibition [1]: 1%

SMILES: CCc1nc(C(N)=O)c(Nc2ccc(N3CCC(N4CCN(c5ncc(C(=O)Nc6ccccc6N)cn5)CC4)CC3)c(OC)c2)nc1NC1CCOCC1
- inhibition [3]: 4.3%

SMILES: CCc1nc(C(N)=O)c(Nc2ccc(N3CCN(CCCCCC(=O)NO)CC3)c(OC)c2)nc1NC1CCOCC1
- inhibition [1]: 25%

SMILES: CCc1nc(C(N)=O)c(Nc2ccc(N3CCC(N4CCN(C(=O)CCCCCCC(=O)NO)CC4)CC3)c(OC)c2)nc1NC1CCOCC1
- inhibition [1]: 27%

SMILES: CCc1nc(C(N)=O)c(Nc2ccc(N3CCC(N4CCN(c5ncc(C(=O)NO)cn5)CC4)CC3)c(OC)c2)nc1NC1CCOCC1
- inhibition [1]: 18.7%

SMILES: CCc1nc(C(N)=O)c(Nc2ccc(N3CCC(N4CCN(Cc5ccc(C(=O)NCc6ccc(/C=C/C(=O)NO)cc6)cc5)CC4)CC3)c(OC)c2)nc1NC1CCOCC1
- IC50 [2]: 63 nM
